Assay results from ChEMBL document CHEMBL2440112, “Structure-activity relationships of the aromatic site in novel anticonvulsant pyrrolo[1,2-a]pyrazine derivatives” (Bioorg Med Chem Lett, 2013).
Activity calls are given as the source filed them. The calls are words filed in the database; no cut-off is given here.

Tests used:
Mus musculus [1] = assay: Neurotoxicity in albino mouse assessed as minimal motor impairment at 100 mg/kg, ip after 0.25 hrs by rotorod test; assay type: toxicity, organism-based; design: dose 100 mg/kg, route intraperitoneal; conditions: in vivo
Mus musculus [2] = assay: Toxicity in subcutaneous metrazole treated albino mouse assessed as myoclonic jerks at 100 mg/kg, ip after 0.5 hrs; assay type: organism-based; design: dose 100 mg/kg; conditions: in vivo, sc
Mus musculus [3] = assay: Neurotoxicity in albino mouse assessed as minimal motor impairment at 100 mg/kg, ip after 0.5 hrs by rotorod test; assay type: toxicity, organism-based; design: dose 100 mg/kg, route intraperitoneal; conditions: in vivo
Mus musculus [4] = assay: Anticonvulsant activity in albino mouse assessed as protection against maximal electroshock-induced seizures at 100 mg/kg, ip after 4 hrs; assay type: functional, organism-based; design: dose 100 mg/kg
Mus musculus [5] = assay: Anticonvulsant activity in albino mouse assessed as protection against subcutaneous metrazole-induced seizures at 100 mg/kg, ip after 4 hrs; assay type: functional, organism-based; design: dose 100 mg/kg
Mus musculus [6] = assay: Anticonvulsant activity in albino mouse assessed as protection against maximal electroshock-induced seizures at 100 mg/kg, ip after 0.25 hrs; assay type: functional, organism-based; design: dose 100 mg/kg
Mus musculus [7] = assay: Anticonvulsant activity in albino mouse assessed as protection against subcutaneous metrazole-induced seizures at 100 mg/kg, ip after 0.5 hrs; assay type: functional, organism-based; design: dose 100 mg/kg
Mus musculus [8] = assay: Anticonvulsant activity in albino mouse assessed as protection against maximal electroshock-induced seizures at 100 mg/kg, ip after 1 hr; assay type: functional, organism-based; design: dose 100 mg/kg
Mus musculus [9] = assay: Neurotoxicity in albino mouse assessed as minimal motor impairment at 100 mg/kg, ip after 4 hrs by rotorod test; assay type: toxicity, organism-based; design: dose 100 mg/kg, route intraperitoneal; conditions: in vivo
Mus musculus [10] = assay: Anticonvulsant activity in albino mouse assessed as protection against maximal electroshock-induced seizures at 100 mg/kg, ip after 0.5 hrs; assay type: functional, organism-based; design: dose 100 mg/kg
Rattus norvegicus [11] = assay: Anticonvulsant activity in po dosed albino Sprague-Dawley rat assessed as protection against maximal electroshock-induced seizures after […] to 4 hrs; assay type: functional, organism-based
Mus musculus [12] = assay: Neurotoxicity in albino mouse assessed as minimal motor impairment at 100 mg/kg, ip after 1 hr by rotorod test; assay type: toxicity, organism-based; design: dose 100 mg/kg, route intraperitoneal; conditions: in vivo
Mus musculus [13] = assay: Anticonvulsant activity in albino mouse assessed as protection against subcutaneous metrazole-induced seizures at 100 mg/kg, ip after 1 hr; assay type: functional, organism-based; design: dose 100 mg/kg
Mus musculus [14] = assay: Anticonvulsant activity in albino mouse assessed as protection against 6 Hz psychomotor seizure at 100 mg/kg, ip after 1 hr by minimal clonic seizure test; assay type: functional, organism-based; design: dose 100 mg/kg
Mus musculus [15] = assay: Anticonvulsant activity in albino mouse assessed as protection against 6 Hz psychomotor seizure at 100 mg/kg, ip after 2 hrs by minimal clonic seizure test; assay type: functional, organism-based; design: dose 100 mg/kg
Mus musculus [16] = assay: Anticonvulsant activity in albino mouse assessed as protection against 6 Hz psychomotor seizure at 100 mg/kg, ip after 0.5 hrs by minimal clonic seizure test; assay type: functional, organism-based; design: dose 100 mg/kg
Mus musculus [17] = assay: Neurotoxicity in albino mouse minimal clonic seizure model assessed as minimal motor impairment at 100 mg/kg, ip after 0.5 hrs by rotorod test; assay type: toxicity, organism-based; design: dose 100 mg/kg, route intraperitoneal; conditions: in vivo
Mus musculus [18] = assay: Neurotoxicity in albino mouse minimal clonic seizure model assessed as minimal motor impairment at 100 mg/kg, ip after 4 hrs by rotorod test; assay type: toxicity, organism-based; design: dose 100 mg/kg, route intraperitoneal; conditions: in vivo
Mus musculus [19] = assay: Anticonvulsant activity in albino mouse assessed as protection against 6 Hz psychomotor seizure at 100 mg/kg, ip after 0.25 hrs by minimal clonic seizure test; assay type: functional, organism-based; design: dose 100 mg/kg
Mus musculus [20] = assay: Neurotoxicity in albino mouse minimal clonic seizure model assessed as minimal motor impairment at 100 mg/kg, ip after 1 hr by rotorod test; assay type: toxicity, organism-based; design: dose 100 mg/kg, route intraperitoneal; conditions: in vivo
Mus musculus [21] = assay: Anticonvulsant activity in albino mouse assessed as protection against subcutaneous metrazole-induced seizures at 100 mg/kg, ip after 0.25 hrs; assay type: functional, organism-based; design: dose 100 mg/kg
Mus musculus [22] = assay: Neurotoxicity in albino mouse minimal clonic seizure model assessed as loss of righting reflex at 100 mg/kg, ip after 0.25 hrs by rotorod test; assay type: toxicity, organism-based; design: dose 100 mg/kg, route intraperitoneal; conditions: in vivo
Mus musculus [23] = assay: Neurotoxicity in albino mouse minimal clonic seizure model assessed as minimal motor impairment at 100 mg/kg, ip after 0.25 hrs by rotorod test; assay type: toxicity, organism-based; design: dose 100 mg/kg, route intraperitoneal; conditions: in vivo
Mus musculus [24] = assay: Anticonvulsant activity in albino mouse assessed as protection against 6 Hz psychomotor seizure at 100 mg/kg, ip after 4 hrs by minimal clonic seizure test; assay type: functional, organism-based; design: dose 100 mg/kg
Mus musculus [25] = assay: Neurotoxicity in albino mouse minimal clonic seizure model assessed as minimal motor impairment at 100 mg/kg, ip after 2 hrs by rotorod test; assay type: toxicity, organism-based; design: dose 100 mg/kg, route intraperitoneal; conditions: in vivo
Rattus norvegicus [26] = assay: Toxicity in albino Sprague-Dawley rat pilocarpine-induced status prevention model assessed as weight change in non-protected animal at 200 mg/kg, ip administered 30 mins before pilocarpine challenge; assay type: organism-based; design: dose 200 mg/kg, route intraperitoneal; conditions: in vivo, 0.5 h
Rattus norvegicus [27] = assay: Neurotoxicity in albino Sprague-Dawley rat assessed as minimal motor impairment at 30 mg/kg, ip after 1 hr by rotorod test; assay type: toxicity, organism-based; design: dose 30 mg/kg, route intraperitoneal; conditions: in vivo
Rattus norvegicus [28] = assay: Neurotoxicity in albino Sprague-Dawley rat assessed as minimal motor impairment at 30 mg/kg, ip after 0.25 hrs by rotorod test; assay type: toxicity, organism-based; design: dose 30 mg/kg, route intraperitoneal; conditions: in vivo
Rattus norvegicus [29] = assay: Neurotoxicity in albino Sprague-Dawley rat assessed as minimal motor impairment at 30 mg/kg, ip after 0.5 hrs by rotorod test; assay type: toxicity, organism-based; design: dose 30 mg/kg, route intraperitoneal; conditions: in vivo
Rattus norvegicus [30] = assay: Anticonvulsant activity in albino Sprague-Dawley rat assessed as protection against maximal electroshock-induced seizures at 30 mg/kg, ip after 2 hrs; assay type: functional, organism-based; design: dose 30 mg/kg
Rattus norvegicus [31] = assay: Anticonvulsant activity in albino Sprague-Dawley rat assessed as protection against maximal electroshock-induced seizures at 30 mg/kg, ip after 0.25 hrs; assay type: functional, organism-based; design: dose 30 mg/kg
[32] = Neurotoxicity in ip dosed albino mouse minimal clonic seizure model assessed as minimal motor impairment by rotorod test; assay type: toxicity, organism-based; conditions: in vivo
Rattus norvegicus [33] = assay: Anticonvulsant activity in albino Sprague-Dawley rat assessed as protection against maximal electroshock-induced seizures at 30 mg/kg, ip after 4 hrs; assay type: functional, organism-based; design: dose 30 mg/kg
Mus musculus [34] = assay: Anticonvulsant activity in ip dosed albino mouse assessed as protection against 6 Hz psychomotor seizure by minimal clonic seizure test; assay type: functional
Rattus norvegicus [35] = assay: Anticonvulsant activity in albino Sprague-Dawley rat assessed as protection against maximal electroshock-induced seizures at 30 mg/kg, ip after 1 hr; assay type: functional, organism-based; design: dose 30 mg/kg
Rattus norvegicus [36] = assay: Anticonvulsant activity in albino Sprague-Dawley rat assessed as protection against maximal electroshock-induced seizures at 30 mg/kg, ip after 0.5 hrs; assay type: functional, organism-based; design: dose 30 mg/kg
Rattus norvegicus [37] = assay: Neurotoxicity in albino Sprague-Dawley rat assessed as minimal motor impairment at 30 mg/kg, ip after 4 hrs by rotorod test; assay type: toxicity, organism-based; design: dose 30 mg/kg, route intraperitoneal; conditions: in vivo
Rattus norvegicus [38] = assay: Toxicity in albino Sprague-Dawley rat pilocarpine-induced status prevention model assessed as weight change in protected animal at 200 mg/kg, ip followed by immediately administered pilocarpine; assay type: organism-based; design: dose 200 mg/kg, route intraperitoneal; conditions: in vivo
Mus musculus [39] = species: Mus musculus; assay: Protective index, ratio of TD50 for albino mouse minimal clonic seizure model to ED50 for albino mouse assessed as protection against 6 Hz psychomotor seizure; assay type: functional
Rattus norvegicus [40] = assay: Anticonvulsant activity in albino Sprague-Dawley rat pilocarpine-induced status prevention model by measuring post-first stage 3 seizure at 200 mg/kg, ip administered 30 mins before pilocarpine challenge; assay type: functional, organism-based; design: dose 200 mg/kg
Rattus norvegicus [41] = assay: Anticonvulsant activity in albino Sprague-Dawley rat pilocarpine-induced status prevention model by measuring post-first stage 3 seizure at 200 mg/kg, ip followed by immediately administered pilocarpine; assay type: functional, organism-based; design: dose 200 mg/kg
Rattus norvegicus [42] = assay: Neurotoxicity in albino Sprague-Dawley rat assessed as minimal motor impairment at 30 mg/kg, ip after 2 hrs by rotorod test; assay type: toxicity, organism-based; design: dose 30 mg/kg, route intraperitoneal; conditions: in vivo
Rattus norvegicus [43] = assay: Toxicity in albino Sprague-Dawley rat pilocarpine-induced status prevention model assessed as weight change in non-protected animal at 200 mg/kg, ip followed by immediately administered pilocarpine; assay type: organism-based; design: dose 200 mg/kg, route intraperitoneal; conditions: in vivo
Mus musculus [44] = assay: Anticonvulsant activity in ip dosed albino mouse assessed as time of peak effect for protection against 6 Hz psychomotor seizure by minimal clonic seizure test; assay type: functional
Rattus norvegicus [45] = assay: Toxicity in albino Sprague-Dawley rat pilocarpine-induced status prevention model assessed as weight change in protected animal at 200 mg/kg, ip administered 30 mins before pilocarpine challenge; assay type: organism-based; design: dose 200 mg/kg, route intraperitoneal; conditions: in vivo, 0.5 h
Mus musculus [46] = assay: Neurotoxicity in albino mouse assessed as loss of righting reflex at 100 mg/kg, ip after 0.25 hrs by rotorod test; assay type: toxicity, organism-based; design: dose 100 mg/kg, route intraperitoneal; conditions: in vivo
Mus musculus [47] = assay: Toxicity in subcutaneous metrazole treated albino mouse assessed as myoclonic jerks at 100 mg/kg, ip after 0.25 hrs; assay type: organism-based; design: dose 100 mg/kg; conditions: in vivo, sc

| SMILES | Activity (Mus musculus [1]) | Activity (Mus musculus [3]) | Activity (Mus musculus [4]) | Activity (Mus musculus [5]) | Activity (Mus musculus [6]) | Activity (Mus musculus [7]) | Activity (Mus musculus [8]) | Activity (Mus musculus [9]) | Activity (Mus musculus [10]) | Activity (Rattus norvegicus [11]) | Activity (Mus musculus [12]) | Activity (Mus musculus [13]) | Activity (Mus musculus [14]) | Activity (Mus musculus [15]) | Activity (Mus musculus [16]) | Activity (Mus musculus [17]) | Activity (Mus musculus [18]) | Activity (Mus musculus [19]) | Activity (Mus musculus [20]) | Activity (Mus musculus [24]) | further results |
| --- | --- | --- | --- | --- | --- | --- | --- | --- | --- | --- | --- | --- | --- | --- | --- | --- | --- | --- | --- | --- | --- |
| O=C1NC(=O)[C@@H]2CCCN2[C@H]1c1ccc(Cl)c(Cl)c1 | Non-toxic | Non-toxic | inactive | inactive | inactive | Active | inactive | Non-toxic | inactive | inactive | Non-toxic |  |  |  |  |  |  |  |  |  | Activity (Mus musculus [2]): Toxic |
| O=C1NC(=O)[C@@H]2CCCN2[C@H]1c1cccc(Cl)c1 | Toxic | Non-toxic | inactive | inactive | Active | inactive | Active | Non-toxic | Active | inactive | Non-toxic | inactive | Active | inactive | Active | Toxic | Non-toxic | Active | Non-toxic | inactive | Activity (Mus musculus [21]): Active; Activity (Mus musculus [22]): Toxic; Activity (Mus musculus [23]): Toxic; Activity (Mus musculus [25]): Non-toxic |
| O=C1NC(=O)[C@@H]2CCCN2[C@H]1c1ccc(Cl)cc1 | Non-toxic | Non-toxic | inactive | inactive | Active | inactive | inactive | Non-toxic | inactive | inactive | Non-toxic |  | Active | Active | Active |  |  | Active |  | inactive | Activity (Rattus norvegicus [26]): -31.4 g; Activity (Rattus norvegicus [27]): Non-toxic; Activity (Rattus norvegicus [28]): Non-toxic; Activity (Rattus norvegicus [29]): Non-toxic; Activity (Rattus norvegicus [30]): inactive; Activity (Rattus norvegicus [31]): Active; TD50 [32]: 212 mg/kg; Activity (Rattus norvegicus [33]): inactive; ED50 (Mus musculus [34]): 32.2 mg/kg; Activity (Rattus norvegicus [35]): inactive; Activity (Rattus norvegicus [36]): Active; Activity (Rattus norvegicus [37]): Non-toxic; Activity (Rattus norvegicus [38]): -3.6 g; Ratio TD50/ED50 (Mus musculus [39]): 6.6; Activity (Rattus norvegicus [40]): inactive; Activity (Rattus norvegicus [41]): Active; Activity (Rattus norvegicus [42]): Non-toxic; Activity (Rattus norvegicus [43]): 15 g; Time (Mus musculus [44]): 0.25 h; Activity (Rattus norvegicus [45]): -30 g |
| Cc1ccccc1[C@H]1C(=O)NC(=O)[C@@H]2CCCN12 |  | Non-toxic | inactive | inactive | inactive | inactive | inactive | Non-toxic | inactive | inactive | Non-toxic | inactive | Active | inactive | Active | Non-toxic | Non-toxic | Active | Non-toxic | inactive | Activity (Mus musculus [46]): Toxic; Activity (Mus musculus [23]): Non-toxic; Activity (Mus musculus [47]): Toxic; Activity (Mus musculus [25]): Non-toxic |
